Read-outs that look alike come from different tables or passages of the source.
Tests used:
Type in all cases: cell-based
[1] = system: vaccinia virus mature virions (EGFP-MV)
[2] = system: vaccinia virus mature virions (mYFP-MV)
[3] = system: MV-induced blebbing of HeLa cells; conditions: microscopy
[4] = system: vaccinia virus mature virions (MV entry)
[5] = system: vaccinia virus mature virions
[6] = system: vaccinia virus mature virions (mYFP-MV); remark: listed apart in the source

COC[C@H]1OC(=O)c2coc3c2[C@@]1(C)C1=C(C3=O)[C@@H]2CCC(=O)[C@@]2(C)C[C@H]1OC(C)=O [wortmannin]
inhibition of viral infection [1]: up to 63%

ANX5
infectivity [1]: no effect | inhibition of infection by masking of viral PS [1]: 95% | MV binding to cells [2]: without affecting MV binding | viral binding [2]: no effect

Cc1ccc2c(c1)C(=O)C1(O)CCN(c3ccccc3)C1=N2 (centres unmarked) [Blebbistatin]
MV-induced bleb formation [3]: prevented formation of the blebs | MV-induced bleb formation ([3]; listed as blebbistatin): inhibited bleb-formation | inhibition of viral infection [1]: 62%

O=C(Nc1cccc(Nc2cc(Nc3cccc(C(F)(F)F)c3)ncn2)c1)C1CC1 [EGFR inhibitor 324674]
MV entry [4]: effectively blocks MV entry

phosphatidylserine [PS]
fraction of original infectivity and plaque formation rescued [5]: 90%

O=c1c(-c2ccc(O)cc2)coc2cc(O)cc(O)c12 [genistein]
inhibition of viral infection [1]: up to 82%

CCN(c1nc(N)c(C(=O)N=C(N)N)nc1Cl)C(C)C [EIPA, 5-N-ethyl-N-isopropyl-amiloride]
MV-induced bleb formation [3]: inhibited bleb-formation | internalization of MV into FITC-dextran positive vacuoles [6]: prevented internalization | inhibition of viral infection [1]: 90%

From US20100272706A1, “ANTIVIRALS” (priority 2007, published 2010)
